According to PubChem BioAssay (NCI):
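Grown in 96-well plates, cells were treated for 48 hours with each compound at five concentrations. Insufficient inhibition: endpoint recorded as highest concentration tested. GI50: concentration for 50% inhibition of growth. At the TGI there is no net growth.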

Columns and labels:
Experiment in all cases: NCI tumour cell line growth inhibition, 48 h
OVCAR-8 ovarian = system: OVCAR-8 ovarian
OVCAR-5 ovarian = system: OVCAR-5 ovarian
HCT-116 colon = system: HCT-116 colon
T-47D breast = system: T-47D breast
A549 NSCLC = system: A549 NSCLC
UO-31 renal = system: UO-31 renal
UACC-257 melanoma = system: UACC-257 melanoma
HL-60(TB) leukemia = system: HL-60(TB) leukemia
M14 melanoma = system: M14 melanoma
RXF 393 renal = system: RXF 393 renal
HT29 colon = system: HT29 colon
SN12C renal = system: SN12C renal
NCI-H226 lung = system: NCI-H226 lung
CAKI-1 renal = system: CAKI-1 renal
DU-145 prostate = system: DU-145 prostate
K-562 leukemia = system: K-562 leukemia
NCI-H460 lung = system: NCI-H460 lung
NCI-H522 lung = system: NCI-H522 lung
NCI/ADR-RES ovarian = system: NCI/ADR-RES ovarian
SNB-19 CNS = system: SNB-19 CNS
HOP-62 NSCLC = system: HOP-62 NSCLC
IGROV1 ovarian = system: IGROV1 ovarian
KM12 colon = system: KM12 colon
SK-MEL-28 melanoma = system: SK-MEL-28 melanoma
U251 CNS = system: U251 CNS
LOX IMVI melanoma = system: LOX IMVI melanoma
SNB-75 CNS = system: SNB-75 CNS
SW-620 colon = system: SW-620 colon
TK-10 renal = system: TK-10 renal
786-0 renal = system: 786-0 renal
SK-OV-3 ovarian = system: SK-OV-3 ovarian
SF-539 CNS = system: SF-539 CNS
SF-295 CNS = system: SF-295 CNS
EKVX NSCLC = system: EKVX NSCLC
CCRF-CEM leukemia = system: CCRF-CEM leukemia
SK-MEL-5 melanoma = system: SK-MEL-5 melanoma
PC-3 prostate = system: PC-3 prostate
HCT-15 colon = system: HCT-15 colon
SR leukemia = system: SR leukemia
SF-268 CNS = system: SF-268 CNS
HOP-92 NSCLC = system: HOP-92 NSCLC
HS 578T breast = system: HS 578T breast
A498 renal = system: A498 renal
HCC-2998 colon = system: HCC-2998 colon
OVCAR-3 ovarian = system: OVCAR-3 ovarian
UACC-62 melanoma = system: UACC-62 melanoma
MOLT-4 leukemia = system: MOLT-4 leukemia
SK-MEL-2 melanoma = system: SK-MEL-2 melanoma
ACHN renal = system: ACHN renal
BT-549 breast = system: BT-549 breast
OVCAR-4 ovarian = system: OVCAR-4 ovarian
MALME-3M melanoma = system: MALME-3M melanoma
MCF7 breast = system: MCF7 breast
MDA-MB-231 breast = system: MDA-MB-231 breast
MDA-MB-435 = system: MDA-MB-435

[Cl][Ru].c1ccc(-c2cccc(-c3ccccn3)n2)nc1.c1ccc(-c2ccnc3c2ccc2c(-c4ccccc4)ccnc23)cc1
GI50 (OVCAR-8 ovarian): 5.35 µM
TGI (OVCAR-8 ovarian): 59 µM
GI50 (OVCAR-5 ovarian): 4.01 µM
TGI (OVCAR-5 ovarian): 19.5 µM
GI50 (HCT-116 colon): 3.16 µM
TGI (HCT-116 colon): > 100 µM
GI50 (T-47D breast): 2.32 µM
TGI (T-47D breast): 8.35 µM
GI50 (A549 NSCLC): 4.06 µM
TGI (A549 NSCLC): 75.4 µM
GI50 (UO-31 renal): 6.31 µM
TGI (UO-31 renal): > 100 µM
GI50 (UACC-257 melanoma): 2.7 µM
TGI (UACC-257 melanoma): 14.2 µM
GI50 (HL-60(TB) leukemia): 1.62 µM
TGI (HL-60(TB) leukemia): 4.03 µM
GI50 (M14 melanoma): 4.82 µM
TGI (M14 melanoma): 34.3 µM
GI50 (RXF 393 renal): 3.43 µM
TGI (RXF 393 renal): 19 µM
GI50 (HT29 colon): 3.08 µM
TGI (HT29 colon): 12 µM
GI50 (SN12C renal): 2.87 µM
TGI (SN12C renal): 10.8 µM
GI50 (NCI-H226 lung): 4.66 µM
TGI (NCI-H226 lung): 25.7 µM
GI50 (CAKI-1 renal): 13.8 µM
TGI (CAKI-1 renal): 36.6 µM
GI50 (DU-145 prostate): 4.84 µM
TGI (DU-145 prostate): > 100 µM
GI50 (K-562 leukemia): 1.67 µM
TGI (K-562 leukemia): > 100 µM
GI50 (NCI-H460 lung): 3.75 µM
TGI (NCI-H460 lung): > 100 µM
GI50 (NCI-H522 lung): 2.12 µM
TGI (NCI-H522 lung): 6.75 µM
GI50 (NCI/ADR-RES ovarian): 10 µM
TGI (NCI/ADR-RES ovarian): > 100 µM
GI50 (SNB-19 CNS): 3.33 µM
TGI (SNB-19 CNS): 21.7 µM
GI50 (HOP-62 NSCLC): 4.11 µM
TGI (HOP-62 NSCLC): 27.9 µM
GI50 (IGROV1 ovarian): 2.93 µM
TGI (IGROV1 ovarian): 20.7 µM
GI50 (KM12 colon): 3.04 µM
TGI (KM12 colon): > 100 µM
GI50 (SK-MEL-28 melanoma): 3.01 µM
TGI (SK-MEL-28 melanoma): 18 µM
GI50 (U251 CNS): 2.69 µM
TGI (U251 CNS): > 100 µM
GI50 (LOX IMVI melanoma): 3.04 µM
TGI (LOX IMVI melanoma): > 100 µM
GI50 (SNB-75 CNS): 2.37 µM
TGI (SNB-75 CNS): 9.73 µM
GI50 (SW-620 colon): 4.14 µM
TGI (SW-620 colon): 80.5 µM
GI50 (TK-10 renal): 11.8 µM
TGI (TK-10 renal): 37.3 µM
GI50 (786-0 renal): 13.2 µM
TGI (786-0 renal): 62.7 µM
GI50 (SK-OV-3 ovarian): 2.3 µM
TGI (SK-OV-3 ovarian): 7 µM
GI50 (SF-539 CNS): 2.93 µM
TGI (SF-539 CNS): 19.9 µM
GI50 (SF-295 CNS): 13.8 µM
TGI (SF-295 CNS): 56.7 µM
GI50 (EKVX NSCLC): 3.22 µM
TGI (EKVX NSCLC): 23.3 µM
GI50 (CCRF-CEM leukemia): 4.5 µM
TGI (CCRF-CEM leukemia): > 100 µM
GI50 (SK-MEL-5 melanoma): 6.55 µM
TGI (SK-MEL-5 melanoma): 44.4 µM
GI50 (PC-3 prostate): 2.63 µM
TGI (PC-3 prostate): 10.6 µM
GI50 (HCT-15 colon): 22.4 µM
TGI (HCT-15 colon): > 100 µM
GI50 (SR leukemia): 2.65 µM
TGI (SR leukemia): 17.9 µM
GI50 (SF-268 CNS): 4.17 µM
TGI (SF-268 CNS): > 100 µM
GI50 (HOP-92 NSCLC): 1.09 µM
TGI (HOP-92 NSCLC): 3.64 µM
GI50 (HS 578T breast): 2.6 µM
TGI (HS 578T breast): 8.63 µM
GI50 (A498 renal): 15.1 µM
TGI (A498 renal): 46.6 µM
TGI (HCC-2998 colon): 20.1 µM
GI50 (OVCAR-3 ovarian): 3.36 µM
TGI (OVCAR-3 ovarian): > 100 µM
GI50 (UACC-62 melanoma): 1.97 µM
TGI (UACC-62 melanoma): 5.53 µM
GI50 (MOLT-4 leukemia): 3.51 µM
TGI (MOLT-4 leukemia): 24.5 µM
GI50 (SK-MEL-2 melanoma): 1.96 µM
TGI (SK-MEL-2 melanoma): 5.13 µM
GI50 (ACHN renal): 21.2 µM
TGI (ACHN renal): > 100 µM
GI50 (BT-549 breast): 2.26 µM
TGI (BT-549 breast): 6.46 µM
GI50 (OVCAR-4 ovarian): 3.13 µM
TGI (OVCAR-4 ovarian): 26.7 µM
GI50 (MALME-3M melanoma): 2.42 µM
TGI (MALME-3M melanoma): 7.52 µM
GI50 (MCF7 breast): 2.41 µM
TGI (MCF7 breast): 13.4 µM
GI50 (MDA-MB-231 breast): 3 µM
TGI (MDA-MB-231 breast): 12.5 µM
GI50 (MDA-MB-435): 2.77 µM
TGI (MDA-MB-435): 11 µM
